{"source": "ChEMBL document CHEMBL3727373", "about": "“Phosphoglycerate kinase inhibitors” (2012)", "data": [{"target": "T1, Phosphoglycerate kinase 1 (Homo sapiens, UniProt P00558)", "T1 sequence (P00558 whole entry)": "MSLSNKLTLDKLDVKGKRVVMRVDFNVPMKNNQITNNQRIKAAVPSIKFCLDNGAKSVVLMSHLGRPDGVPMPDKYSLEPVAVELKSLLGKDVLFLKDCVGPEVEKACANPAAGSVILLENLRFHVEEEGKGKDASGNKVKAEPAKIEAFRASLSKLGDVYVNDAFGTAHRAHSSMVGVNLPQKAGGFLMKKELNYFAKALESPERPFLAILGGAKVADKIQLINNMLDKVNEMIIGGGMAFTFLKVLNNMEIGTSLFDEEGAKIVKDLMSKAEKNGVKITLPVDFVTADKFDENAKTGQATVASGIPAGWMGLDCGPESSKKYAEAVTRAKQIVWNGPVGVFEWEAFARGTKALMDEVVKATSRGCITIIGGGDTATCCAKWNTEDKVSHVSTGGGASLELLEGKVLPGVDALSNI", "experiment": "Inhibition of PGK1 (unknown origin) pre-incubated with enzyme before 3-phosphoglycerate substrate addition and incubated for 30 mins in presence of NADH and ATP by glyceraldehyde P-dehydrogenase coupling based NADH fluorescence assay", "units": {"IC50": "nM"}, "values": [{"compound": "CCNc1nc2cc(Cl)c(OC)cc2nc1NCC", "IC50": 9}, {"compound": "CCNc1nc2cc(OC)c(OC)cc2nc1NCCCN1CCCC1=O", "IC50": 1810}, {"compound": "CCNc1nc2cc(OC)c(OC)cc2nc1NCc1ccccn1", "IC50": 1280}, {"compound": "CCNc1nc2cc(OC)c(OC)cc2nc1NCCCN1CCCC1", "IC50": 4360}, {"compound": "CCNc1nc2cc(OC)c(Cl)cc2nc1NCCN1CCN(C)CC1", "IC50": 173}, {"compound": "CCNc1nc2cc(OC)c(Cl)cc2nc1-c1cccs1", "IC50": 190}, {"compound": "CCNc1nc2cc(OC)c(Cl)cc2nc1-c1cccc(Cl)c1", "IC50": 2100}, {"compound": "CCNc1nc2cc(OC)c(Cl)cc2nc1-c1cccc(C(N)=O)c1", "IC50": 240}, {"compound": "CN1CCN(CCNc2nc3cc(Cl)c(C#N)cc3nc2-c2ccccn2)CC1", "IC50": 346}, {"compound": "CCNc1nc2cc(Cl)c(C#CCCCCO)cc2nc1NCC", "IC50": 385}, {"compound": "CCNc1nc2cc(OC)c(OC)cc2nc1-c1ccncc1", "IC50": 6660}, {"compound": "CCNc1nc2cc(OC)c(Cl)cc2nc1-c1cncc2ccccc12", "IC50": 1500}, {"compound": "CNc1nc2cc(OC)c(OC)cc2nc1Cl", "IC50": 24000}, {"compound": "CCNc1nc2cc(OC)c(Cl)cc2nc1-c1ccc(C(C)=O)s1", "IC50": 1100}, {"compound": "CCNc1nc2cc(Cl)c(C#CC(=O)OC)cc2nc1NCC", "IC50": 633}, {"compound": "CCNc1nc2cc(OC)c(Cl)cc2nc1Cl", "IC50": 1180}, {"compound": "CCNc1nc2cc(OC)c(Cl)cc2nc1NCc1cccnc1", "IC50": 129}, {"compound": "CCNc1nc2cc(C#CCCO)c(Cl)cc2nc1NCCN1CCN(C)CC1", "IC50": 8}, {"compound": "CCNc1nc2cc(OC)c(OC)cc2nc1NCc1cccnc1", "IC50": 710}, {"compound": "CCNc1nc2cc(OC)c(Cl)cc2nc1NCCCN1CCCC1", "IC50": 252}, {"compound": "CCNc1nc2cc(OC)c(OC)cc2nc1NCCc1ccccn1", "IC50": 840}, {"compound": "CCNc1nc2cc(Cl)c(C#CCCCC#N)cc2nc1NCC", "IC50": 570}, {"compound": "CCNc1nc2cc(OC)c(Cl)cc2nc1-c1ccc(N2CCN(C(=O)OC(C)(C)C)CC2)nc1", "IC50": 1700}, {"compound": "CCNc1nc2cc(OC)c(OC)cc2nc1Cl", "IC50": 6320}, {"compound": "CCNc1nc2cc(OC)c(Cl)cc2nc1-c1cccc2ncccc12", "IC50": 1400}, {"compound": "CCNc1nc2cc(Cl)c(C#CC3CC3)cc2nc1NCC", "IC50": 19}, {"compound": "CCNc1nc2cc(Cl)c(C#Cc3ccoc3)cc2nc1NCC", "IC50": 1030}, {"compound": "CCC#Cc1cc2nc(NCC)c(NCC)nc2cc1Cl", "IC50": 270}, {"compound": "CCCCC#Cc1cc2nc(NCC)c(NCC)nc2cc1Cl", "IC50": 884}, {"compound": "CCNc1nc2cc(OC)c(OC)cc2nc1NCCc1ccncc1", "IC50": 741}, {"compound": "CCNc1nc2cc(C#CCCO)c(Cl)cc2nc1Cl", "IC50": 41}, {"compound": "CN1CCN(CCNc2nc3cc(Cl)c(C#CCCO)cc3nc2NCCN2CCN(C)CC2)CC1", "IC50": 36}, {"compound": "COc1cc2nc(Br)c(NCCN3CCN(C)CC3)nc2cc1OC", "IC50": 16400}, {"compound": "CCNc1nc2cc(OC)c(OC)cc2nc1NC", "IC50": 2530}, {"compound": "CCNc1nc2cc(Cl)c(C#CCCO)cc2nc1NCC", "IC50": 5}, {"compound": "CCNc1nc2cc(OC)c(Cl)cc2nc1-c1ccc2c(ccn2C)c1", "IC50": 220}, {"compound": "COc1cc2nc(NCc3cccnc3)c(-c3ccncc3)nc2cc1OC", "IC50": 7590}, {"compound": "CCNc1nc2cc(OC)c(Cl)cc2nc1-c1cnn(C)c1", "IC50": 66}, {"compound": "CCNc1nc2cc(O)c(Cl)cc2nc1NCC", "IC50": 366}, {"compound": "CCNc1nc2cc(OC)c(Cl)cc2nc1-c1ccc2occc(=O)c2c1", "IC50": 1600}, {"compound": "CCNc1nc2cc(OC)c(Cl)cc2nc1NCCCN1CCN(C)CC1", "IC50": 195}, {"compound": "CCNc1nc2cc(C#CCCO)c(Cl)cc2nc1NCCCN1CCN(C)CC1", "IC50": 16}, {"compound": "CCNc1nc2cc(Cl)c(-c3noc(CCO)n3)cc2nc1NCC", "IC50": 596}, {"compound": "CCNc1nc2cc(OC)c(OC)cc2nc1Br", "IC50": 4640}, {"compound": "CCNc1nc2cc(OC)c(Cl)cc2nc1-c1ccccc1-c1ccccc1", "IC50": 2000}, {"compound": "CCNc1nc2cc(Cl)c(C#CCOC)cc2nc1NCC", "IC50": 66}, {"compound": "CCNc1nc2cc(Cl)c(C#CCOC(=O)CC)cc2nc1NCC", "IC50": 257}, {"compound": "CCNc1nc2cc(OC)c(Cl)cc2nc1-c1cc2ccccc2o1", "IC50": 1400}, {"compound": "CCNc1nc2cc(Cl)c(C#Cc3cccc(O)c3)cc2nc1NCC", "IC50": 5700}, {"compound": "CCNc1nc2cc(OC)c(Cl)cc2nc1-c1ccc(Cl)cc1", "IC50": 1900}, {"compound": "CCNc1nc2cc(Cl)c(C#CCO)cc2nc1NCC", "IC50": 1}, {"compound": "CCNc1nc2cc(Cl)c(CC(=O)CCC(=O)O)cc2nc1NCC", "IC50": 5830}, {"compound": "CCNc1nc2cc(Cl)c(OC(F)(F)F)cc2nc1NCC", "IC50": 1170}, {"compound": "CCNc1nc2cc(Cl)c(C#CCCCO)cc2nc1NCC", "IC50": 42}, {"compound": "CCNc1nc2cc(OC)c(Cl)cc2nc1-c1cccc(C(=O)NCc2ccco2)c1", "IC50": 210}, {"compound": "CCNc1nc2cc(Cl)c(C#N)cc2nc1NCc1cccnc1", "IC50": 15}, {"compound": "CCNc1nc2cc(OC)c(Cl)cc2nc1-c1cc2ccccc2s1", "IC50": 78}, {"compound": "CCNc1nc2cc(Cl)c(NC(C)=O)cc2nc1NCC", "IC50": 4140}, {"compound": "CCNc1nc2cc(Cl)c(CC(=O)CCC(=O)OC)cc2nc1NCC", "IC50": 9000}, {"compound": "CCNc1nc2cc(OC)c(Cl)cc2nc1NC(C)CCCN(CC)CC", "note": "(stereo not given)", "IC50": 515}, {"compound": "CCNc1nc2cc(OC)c(Cl)cc2nc1-c1ccc2c(c1)OCO2", "IC50": 2300}, {"compound": "C#CCOc1cc2nc(NCC)c(NCC)nc2cc1Cl", "IC50": 320}, {"compound": "CCNc1nc2cc(Cl)c(C#CC(C)(O)CC)cc2nc1NCC", "note": "(stereo not given)", "IC50": 4810}, {"compound": "CCNc1nc2cc(Cl)c(C#N)cc2nc1NCC", "IC50": 38}, {"compound": "CCNc1nc2cc(OC)c(Cl)cc2nc1-c1cnn(Cc2ccccc2)c1", "IC50": 91}, {"compound": "CCNc1nc2cc(Cl)c(NC(=O)CCO)cc2nc1NCC", "IC50": 1090}, {"compound": "CCNc1nc2cc(Cl)c(C#CC(C)O)cc2nc1NCC", "note": "(stereo not given)", "IC50": 125}, {"compound": "CCNc1nc2cc(Cl)c(C#CCNC(N)=O)cc2nc1NCC", "IC50": 393}, {"compound": "COc1cc2nc(NCCCN3CCCC3)c(-c3ccncc3)nc2cc1OC", "IC50": 10000}, {"compound": "CCNc1nc2cc(OC)c(Cl)cc2nc1-c1cccc2[nH]ccc12", "IC50": 4400}, {"compound": "CCNc1nc2cc(Cl)c(C#CCCN3C(=O)c4ccccc4C3=O)cc2nc1NCC", "IC50": 3160}, {"compound": "CCNc1nc2cc(OC)c(Cl)cc2nc1-c1csc2ccccc12", "IC50": 2000}, {"compound": "CCNc1nc2cc(Cl)c(C#CCCC#N)cc2nc1NCC", "IC50": 54}, {"compound": "CCNc1nc2cc(Cl)c(C#CC(C)(C)O)cc2nc1NCC", "IC50": 2690}, {"compound": "CCNc1nc2cc(OC)c(Cl)cc2nc1-c1cccc2ccccc12", "IC50": 10000}, {"compound": "CCNc1nc2cc(Cl)c(C#N)cc2nc1NCCN1CCN(C)CC1", "IC50": 71}, {"compound": "CCNc1nc2cc(Cl)c(C#CCCN)cc2nc1NCC", "IC50": 1050}, {"compound": "CCNc1nc2cc(Cl)c(N3CC(CCO)C3)cc2nc1NCC", "IC50": 10000}, {"compound": "C#Cc1cc2nc(NCC)c(NCC)nc2cc1Cl", "IC50": 12}, {"compound": "CCNc1nc2cc(OC)c(OC)cc2nc1NCC", "IC50": 50000}, {"compound": "CCNc1nc2cc(OC)c(Cl)cc2nc1-c1cccc(C(=O)NCc2ccccc2)c1", "IC50": 550}, {"compound": "CCNc1nc2cc(Cl)c(C#CC(N)=O)cc2nc1NCC", "IC50": 556}, {"compound": "CCCC(O)C#Cc1cc2nc(NCC)c(NCC)nc2cc1Cl", "note": "(stereo not given)", "IC50": 2000}, {"compound": "CCNc1nc2cc(OC)c(Cl)cc2nc1-c1cn[nH]c1", "IC50": 75}, {"compound": "CCNc1nc2cc(Cl)c(C#CCC(C)O)cc2nc1NCC", "note": "(stereo not given)", "IC50": 122}, {"compound": "CCNc1nc2cc(OC)c(Cl)cc2nc1-c1cnc2ccccc2c1", "IC50": 4600}, {"compound": "CCNc1nc2cc(C#CCCO)c(Cl)cc2nc1C#CCCO", "IC50": 665}, {"compound": "CCNc1nc2cc(OC)c(OC)cc2nc1NCc1ccncc1", "IC50": 2010}, {"compound": "CCNc1nc2cc(Cl)c([N+](=O)[O-])cc2nc1NCC", "IC50": 98}, {"compound": "CCNc1nc2cc(Cl)c(C#CCOCCO)cc2nc1NCC", "IC50": 103}]}]}
